Results taken from patent US10286022B2, “Medicinal composition of extract of seed of emblica officinalis and method of preparing the same” (priority 2013, dated 2019).

Tests used:
[1] = tested on: Triton WR 1339 induced dyslipidemia in Albino rats (Sprague Dawley strain); test: Hypolipidemic activity compared with other amla extracts, Triton WR 1339 model (Example 25); assay type: in vivo, rat
Method: Forty eight male Albino rats (Sprague Dawley strain) weighing approximate 250-300 gm were selected for the study. The animals were kept in the animal house maintained at temp 24±2° C., 65% relative humidity and 12 hr light/dark cycle. The rats were acclimatized for two weeks and during this period they had access to standard pellet diet and water ad libitum. After two weeks of acclimatization, all the rats were fasted overnight before injecting Triton WR 1339 (Tyloxapol) and administration of test extracts/standard. The animals were divided into twelve groups. Following treatment was given to overnight fasted rats: • Group I: Normal control (vehicle only). • Group II: Triton WR 1339 (300 mg/kg, intraperitoneal). • Group III: Triton WR 1339 (300 mg/kg, intraperitoneal) followed by ethyl acetate of methanol extract of amla seed prepared as per example 1 (2.5 mg/kg, per oral). • Group IV: Triton WR 1339 (300 mg/kg, intraperitoneal) followed by water part of methanol extract of amla seed prepared as per example 1 (2.5 mg/kg, per oral). • Group V: Triton WR 1339 (300 mg/kg, intraperitoneal) followed by ethyl acetate extract of amla seed prepared as per example 2 (2.5 mg/kg, per oral). • Group VI: Triton WR 1339 (300 mg/kg, intraperitoneal) followed by powder of dried amla seed prepared as per example 7 (2.5 mg/kg, per oral). • Group VII: Triton WR 1339 (300 mg/kg, intraperitoneal) followed by water extract of dried amla seed powder prepared as per example 8 (2.5 mg/kg, per oral). • Group VIII: Triton WR 1339 (300 mg/kg, intraperitoneal) followed by methanol extract of dried amla seed powder prepared as per example 9 (2.5 mg/kg, per oral). • Group IX: Triton WR 1339 (300 mg/kg, intraperitoneal) followed by powder of dried amla fruit prepared as per example 10 (2.5 mg/kg, per oral). • Group X: Triton WR 1339 (300 mg/kg, intraperitoneal) followed by water extract of dried Amla fruit powder prepared as per example 11 (2.5 mg/kg, per oral). • Group XI: Triton WR 1339 (300 mg/kg, intraperitoneal) followed by methanol extract of dried amla fruit powder prepared as per example 12 (2.5 mg/kg, per oral). • Group XII: Triton WR 1339 (300 mg/kg, intraperitoneal) followed by atorvastatin (2.5 mg/kg, per oral).
(§1) The animals were deprived of food for next 24 hours but had free access to water ad libitum. After 24 hour of drug treatment 2 ml blood samples were collected from the retro orbital plexus. The blood was allowed to clot and then centrifuged at 3000 rpm for 10 min and the serum was carefully drawn and collected into separate tubes. The serum was analyzed for total cholesterol, triglycerides, high density lipoproteins (HDL), low density lipoproteins (LDL) and very low density lipoproteins (VLDL) levels using auto-analyzer.

[2] = tested on: Triton WR 1339 induced dyslipidemia in Albino rats (Sprague Dawley strain); test: Hypolipidemic activity compared with other amla extracts, Triton WR 1339 model (Example 20); assay type: in vivo, rat
Method: Forty eight male Albino rats (Sprague Dawley strain) weighing approximate 250-300 gm were selected for the study. The animals were kept in the animal house maintained at temp 24±2° C., 65% relative humidity and 12 hr light/dark cycle. The rats were acclimatized for two weeks and during this period they had access to standard pellet diet and water ad libitum. After two weeks of acclimatization, all the rats were fasted overnight before injecting Triton WR 1339 (Tyloxapol) and administration of test extracts/standard. The animals were divided into eight groups. Following treatment was given to overnight fasted rats: • Group I: Normal control (vehicle only). • Group II: Triton WR 1339 (300 mg/kg, intraperitoneal). • Group III: Triton WR 1339 (300 mg/kg, intraperitoneal) followed by amla seed extract prepared as per example 1 (2.5 mg/kg, per oral). • Group IV: Triton WR 1339 (300 mg/kg, intraperitoneal) followed by amla extract prepared as per example 3 (40 mg/kg, per oral). • Group V: Triton WR 1339 (300 mg/kg, intraperitoneal) followed by amla extract prepared as per example 4 (40 mg/kg, per oral). • Group VI: Triton WR 1339 (300 mg/kg, intraperitoneal) followed by amla extract prepared as per example 5 (40 mg/kg, per oral). • Group VII: Triton WR 1339 (300 mg/kg, intraperitoneal) followed by amla extract prepared as per example 6 (40 mg/kg, per oral). • Group VIII: Triton WR 1339 (300 mg/kg, intraperitoneal) followed by atorvastatin (10 mg/kg, per oral).
as §1

[3] = 24 h after Triton i.p. + 2.5 mg/kg p.o.
[4] = 24 h after Triton i.p. + 10 mg/kg p.o.

## CC(C)c1c(C(=O)Nc2ccccc2)c(-c2ccccc2)c(-c2ccc(F)cc2)n1CC[C@@H](O)C[C@@H](O)CC(=O)O [Atorvastatin]
[1]; 2.5 mg/kg p.o.
  effect on cholesterol and triglyceride levels: effective in lowering the cholesterol as well as triglyceride levels
[1]; [3]
  HDL After: 39.56 mg/dL
  LDL After: 44.53 mg/dL
  TC After: 123.14 mg/dL
  TG After: 195.25 mg/dL
  VLDL After: 39.05 mg/dL
[1]; baseline, 2.5 mg/kg p.o. group
  HDL Before: 36.54 mg/dL
  LDL Before: 57.99 mg/dL
  TC Before: 104.44 mg/dL
  TG Before: 49.54 mg/dL
  VLDL Before: 9.91 mg/dL
[2]; [4]
  HDL After: 33.84 mg/dL
  LDL After: 55.00 mg/dL
  TC After: 132.58 mg/dL
  TG After: 218.66 mg/dL
  VLDL After: 43.73 mg/dL
[2]; baseline, 10 mg/kg p.o. group
  HDL Before: 35.11 mg/dL
  LDL Before: 52.43 mg/dL
  TC Before: 97.33 mg/dL
  TG Before: 48.99 mg/dL
  VLDL Before: 9.79 mg/dL
[2]; other amla extracts 40 mg/kg vs seed extract 2.5 mg/kg, atorvastatin 10 mg/kg p.o.
  effect on cholesterol and triglyceride level: effective in lowering the cholesterol as well as triglyceride levels
